{"source": "paper PMC7129073", "about": "(Clinical Microbiology and Infection, 2015)", "key": {"[1]": {"test_system": "Escherichia coli O157:H7", "test": "Kirby-Bauer susceptibility", "assay_type": "cell-based", "conditions": "30 strains, 1990–2003"}, "[2]": {"test_system": "methicillin susceptible Staphylococcus aureus", "test": "NCCLS agar dilution MIC", "assay_type": "cell-based"}, "[3]": {"test_system": "viridans group streptococci (VGS)", "test": "MIC", "assay_type": "cell-based"}, "[4]": {"test_system": "Streptococcus agalactiae strains P0162 and P0425", "test": "Microdilution", "assay_type": "cell-based"}, "[5]": {"test_system": "MSSA", "test": "Agar dilution MIC", "assay_type": "cell-based, Staphylococcus aureus"}, "[6]": {"test_system": "Nocardia spp.", "test": "Time-kill at peak-serum concentrations, seven strains", "assay_type": "cell-based", "conditions": "of seven strains; 24, 72 h"}, "[7]": {"test_system": "methicillin resistant Staphylococcus aureus", "test": "NCCLS agar dilution MIC", "assay_type": "cell-based"}, "[8]": {"test_system": "S. pneumoniae (SPN)", "test": "NCCLS broth microdilution, fluoroquinolones 1999–2004", "assay_type": "cell-based, Streptococcus pneumoniae", "conditions": "Streptococcus pneumoniae, read-out: MIC90 during the six years, 1999–2004"}, "[9]": {"test_system": "MRSA", "test": "Agar dilution MIC", "assay_type": "cell-based, Staphylococcus aureus"}, "[10]": {"test_system": "biofilms of S. aureus (SA204 and SA195) and S. epidermidis (ATCC35983 and ATCC35984)", "test": "Antibiotic lock, in vitro biofilm on polyurethane film, viable counts", "assay_type": "cell-based, Staphylococcus species", "conditions": "any of the time intervals examined"}, "[11]": {"test_system": "Pseudomonas spp.", "test": "MIC", "assay_type": "cell-based"}, "[12]": {"test_system": "Acinetobacter", "test": "Disk diffusion", "assay_type": "cell-based", "conditions": "37 isolates selected as resistant to beta-lactams"}, "[13]": {"test_system": "P. aeruginosa", "test": "Disk diffusion, urine isolates of BPH patients"}, "[14]": {"test_system": "N.gonorrhoeae", "test": "microbe, parasite or virus in culture", "assay_type": "cell-based", "conditions": "Neisseria gonorrhoeae"}, "[15]": {"test_system": "Salmonella serotype Typhimurium", "test": "Disk diffusion, food isolates Spain", "assay_type": "cell-based", "conditions": "n = 53"}, "[16]": {"test_system": "Salmonella serotype Enteritidis", "test": "Disk diffusion, food isolates Spain", "assay_type": "cell-based", "conditions": "n = 96"}, "[17]": {"test_system": "Salmonella, other 49 serotypes", "test": "Disk diffusion, food isolates Spain", "assay_type": "cell-based", "conditions": "n = 115"}, "[18]": {"test_system": "Salmonella spp.", "test": "Agar dilution susceptibility, gastroenteritis isolates Cuba", "assay_type": "cell-based", "conditions": "34 strains, 2002"}, "[19]": {"test_system": "Escherichia coli"}, "[20]": {"test_system": "Nocardia spp.", "test": "E-test on Mueller Hinton agar, 81 clinical isolates", "assay_type": "cell-based"}, "[21]": {"test_system": "S. pneumoniae", "test": "MIC of invasive strains, Saint George Hospital 2001–2004", "assay_type": "cell-based, Streptococcus pneumoniae"}, "[22]": {"test_system": "E. coli", "test": "Disk diffusion, urine isolates of BPH patients", "conditions": "strains isolated after operative intervention"}, "[23]": {"test_system": "H. influenzae", "test": "Disk diffusion, sputum isolates Athens 2001–2004", "assay_type": "cell-based, Haemophilus influenzae"}, "[24]": {"test_system": "Pseudomonas aeruginosa", "test": "MIC, strains from cystic fibrosis patients", "conditions": "by MIC"}, "[25]": {"test_system": "enterococci", "test": "Disk diffusion and E-test, faecal isolates of cancer patients", "assay_type": "cell-based, Enterococcus", "conditions": "38 strains"}, "[26]": {"test_system": "MDR-MRSA", "test": "MIC, MBC", "assay_type": "cell-based, Staphylococcus aureus", "conditions": "time kill, two strains"}, "[27]": {"test_system": "CA-MRSA", "test": "MIC, MBC", "assay_type": "cell-based, Staphylococcus aureus", "conditions": "time kill, two strains"}, "[28]": {"test_system": "glycopeptide intermediate Staphylococcus species (GISS)", "test": "VITEK II, screening plate and E test, blood isolates", "assay_type": "cell-based, coagulase-negative Staphylococci"}}, "note": "Where two headings read alike, the source gives them in different places.", "data": [{"compound": "NC[C@H]1O[C@H](O[C@H]2[C@H](O)[C@@H](O[C@H]3O[C@H](CO)[C@@H](O)[C@H](N)[C@H]3O)[C@H](N)C[C@@H]2N)[C@H](O)[C@@H](O)[C@@H]1O", "note": "[kanamycin]", "values": [{"measurement": "resistant strains", "setting": "[1]", "value": 3.3, "unit": "%"}]}, {"compound": "COc1c(N2C[C@@H]3CCCN[C@@H]3C2)c(F)cc2c(=O)c(C(=O)O)cn(C3CC3)c12", "note": "[moxifloxacin]", "values": [{"measurement": "MIC50", "setting": "[2]; Staphylococcus aureus", "value": 0.06, "unit": "µg/mL"}, {"measurement": "MIC90", "setting": "[2]; Staphylococcus aureus", "value": 0.12, "unit": "µg/mL"}, {"measurement": "MIC range", "setting": "[2]; n = 41", "value": "0.03 to 8", "unit": "µg/mL"}, {"measurement": "MIC50", "setting": "[3]", "value": 0.12, "unit": "µg/mL"}, {"measurement": "MIC90", "setting": "[3]", "value": 0.25, "unit": "µg/mL"}, {"measurement": "MIC", "setting": "[4]; strain P0162 (ParC Ser79Phe, GyrA Glu85Ala)", "value": 0.5, "unit": "µg/mL"}, {"measurement": "MIC", "setting": "[4]; strain P0425 (ParC Ser79Phe, GyrA Glu85Lys)", "value": 2, "unit": "µg/mL"}, {"measurement": "MIC50", "setting": "[5]; Staphylococcus aureus, MSSA", "value": "< 0.025", "unit": "µg/mL"}, {"measurement": "MIC90", "setting": "[5]; Staphylococcus aureus, MSSA", "value": "< 0.0625", "unit": "µg/mL"}, {"measurement": "MIC range", "setting": "[5]; n = 200", "value": "25 to 2000", "unit": "µg/mL"}, {"measurement": "strains with bactericidal activity (≥3 log10 cfu/ml decrease)", "setting": "[6]", "value": 2, "unit": "strains"}, {"measurement": "MIC50", "setting": "[7]; Staphylococcus aureus", "value": 2, "unit": "µg/mL"}, {"measurement": "MIC90", "setting": "[7]; Staphylococcus aureus", "value": 8, "unit": "µg/mL"}, {"measurement": "MIC90", "setting": "[8]", "value": "0.12 to 0.25", "unit": "µg/mL"}, {"measurement": "MIC50", "setting": "[9]; Staphylococcus aureus, MRSA", "value": "< 4", "unit": "µg/mL"}, {"measurement": "MIC90", "setting": "[9]; Staphylococcus aureus, MRSA", "value": "< 4", "unit": "µg/mL"}, {"measurement": "MIC range", "setting": "[9]; n = 50", "value": 4, "unit": "µg/mL"}]}, {"compound": "CCOc1ccc2ccccc2c1C(=O)N[C@@H]1C(=O)N2[C@@H]1SC(C)(C)[C@@H]2C(=O)O", "note": "[nafcillin]", "values": [{"measurement": "significant biofilm killing", "setting": "[10]", "value": "not achieved"}]}, {"compound": "CCN1CCN(C(=O)N[C@@H](C(=O)N[C@@H]2C(=O)N3[C@@H]2SC(C)(C)[C@@H]3C(=O)O)c2ccccc2)C(=O)C1=O", "note": "[piperacillin]", "values": [{"measurement": "susceptible strains", "setting": "[11]", "value": 84, "unit": "%"}, {"measurement": "resistant isolates", "setting": "[12]", "value": 100.0, "unit": "%"}, {"measurement": "resistance", "setting": "[13]", "value": 73.3, "unit": "%"}]}, {"compound": "CN[C@@H]1[C@H](O)[C@H](NC)[C@H]2O[C@@]3(O)C(=O)C[C@@H](C)O[C@H]3O[C@@H]2[C@H]1O", "note": "[spectinomycin]", "values": [{"measurement": "MIC", "setting": "[14]", "value": 16, "unit": "µg/mL"}, {"measurement": "MIC", "setting": "[14]; strain 76mu6", "value": 16, "unit": "µg/mL"}, {"measurement": "MIC", "setting": "[14]; strain 76mu10", "value": 8, "unit": "µg/mL"}, {"measurement": "MIC", "setting": "[14]; strain 92mu6", "value": 8, "unit": "µg/mL"}, {"measurement": "MIC", "setting": "[14]; strain 92mu13", "value": 4, "unit": "µg/mL"}, {"measurement": "resistance rate (NCCLS M100-S13)", "setting": "[15]", "value": 87, "unit": "%"}, {"measurement": "resistance rate (NCCLS M100-S13)", "setting": "[16]", "value": 99, "unit": "%"}, {"measurement": "resistance rate (NCCLS M100-S13)", "setting": "[17]", "value": 100, "unit": "%"}, {"measurement": "resistance", "setting": "[18]", "value": 50, "unit": "%"}]}, {"compound": "COc1cc(Cc2cnc(N)nc2N)cc(OC)c1OC", "note": "[trimethoprim]", "values": [{"measurement": "resistance", "setting": "[19]; 1993, E.coli resistant to ampicillin", "value": 28, "unit": "%"}, {"measurement": "resistance", "setting": "[19]; 1993, E.coli sensitive to ampicillin", "value": 3, "unit": "%"}, {"measurement": "resistance", "setting": "[19]; 2003, E.coli resistant to ampicillin", "value": 43, "unit": "%"}, {"measurement": "resistance", "setting": "[19]; 2003, E.coli sensitive to ampicillin", "value": 4, "unit": "%"}]}, {"compound": "amoxicillin/clavulanate", "values": [{"measurement": "MIC50", "setting": "[20]", "value": 2, "unit": "µg/mL"}, {"measurement": "MIC90", "setting": "[20]", "value": 8, "unit": "µg/mL"}, {"measurement": "% S", "setting": "[21]", "value": 100, "unit": "%"}, {"measurement": "%R", "setting": "[21]", "value": 0, "unit": "%"}, {"measurement": "resistance", "setting": "[22]", "value": 93.1, "unit": "%"}, {"measurement": "resistance rate", "setting": "[23]; 2001–2002", "value": 0, "unit": "%"}, {"measurement": "resistance rate", "setting": "[23]; 2003–2004", "value": 4.6, "unit": "%"}]}, {"compound": "colistin methanesulfonate", "values": [{"measurement": "Susceptible isolates", "setting": "[24]", "value": 98, "unit": "%"}]}, {"compound": "teicoplanin", "values": [{"measurement": "MIC50", "setting": "[2]; n = 41", "value": 1, "unit": "µg/mL"}, {"measurement": "MIC90", "setting": "[2]; n = 41", "value": 1, "unit": "µg/mL"}, {"measurement": "MIC range", "setting": "[2]; n = 41", "value": "0.25 to 2", "unit": "µg/mL"}, {"measurement": "tolerant isolates", "setting": "[3]; 83 isolates, tolerance to VA and TP", "value": 77.6, "unit": "%"}, {"measurement": "MIC50", "setting": "[3]; 107 strains, 1990–2003", "value": 0.06, "unit": "µg/mL"}, {"measurement": "MIC90", "setting": "[3]; 107 strains, 1990–2003", "value": 0.12, "unit": "µg/mL"}, {"measurement": "susceptibility of all isolates", "setting": "[3]; NCCLS", "value": "All isolates were susceptible"}, {"measurement": "sensitivity of all isolated strains", "setting": "[25]", "value": "All the isolated strains were sensitive"}, {"measurement": "Δ Log10 CFU/ml", "setting": "[26]", "value": "−3.82", "unit": "Log10 CFU/ml"}, {"measurement": "Δ Log10 CFU/ml", "setting": "[27]", "value": "−1.86", "unit": "Log10 CFU/ml"}, {"measurement": "MIC of resistant strains", "setting": "[28]; 26 strains", "value": "32 to 256", "unit": "µg/mL"}, {"measurement": "MIC of intermediate sensitive strains", "setting": "[28]; 47 strains", "value": 16, "unit": "µg/mL"}, {"measurement": "MIC50", "setting": "[7]; n = 53", "value": 1, "unit": "µg/mL"}, {"measurement": "MIC90", "setting": "[7]; n = 53", "value": 2, "unit": "µg/mL"}, {"measurement": "MIC range", "setting": "[7]; n = 53", "value": "0.5 to 8", "unit": "µg/mL"}]}]}
